Each structure is given as a SMILES string.

One test deals with NSP14 (Severe acute respiratory syndrome coronavirus 2, UniProt P0DTD1). The test is described as follows: NSP14 MTase inhibition assay at 37° C. (MTase-Glo SAH detection). The format is biochemical, SARS-CoV-2. Conditions: 0.3 nM NSP14, 2.5 μM SAM, 2.5 μM GpppA RNA, 45 min at 37° C.; read-out: Nsp14 Mtase Inh. IC50.
Take `COc1ccc(S(=O)(=O)c2cc(C(=O)NCc3cccc4cnn(C)c34)n(C)c2C)cn1` [A.28]: the IC50 was 119 nM.
The same measure, in the same setting: under `Cc1c(S(=O)(=O)c2ccc(F)cc2)cc(C(=O)NCc2cccc3cnn(C)c23)n1C` [A.17] stands 16 nM.
For the compound `Cc1c(S(=O)(=O)c2ccc3[nH]ncc3c2)cc(C(=O)NC2CN(c3ncc(F)cn3)C[C@@H]2F)n1C` (some centres unmarked) [A.46], the IC50 is 0.77 nM.
In the case of `Cc1c(S(=O)(=O)c2ccc3[nH]ncc3c2)cc(C(=O)N[C@H]2CN(c3ncc(F)cn3)C[C@H]2F)n1C` [A.48], the IC50 is 33 nM.
Regarding `Cc1c(S(=O)(=O)c2ccc3[nH]ncc3c2)cc(C(=O)N[C@@H]2CCN(c3cccc(C(F)F)c3)C2)n1C` [A.86], the IC50 turned out to be 2.5 nM.
Turning to `Cc1c(S(=O)(=O)c2cc(Cl)c3[nH]ncc3c2)cc(C(=O)N[C@@H]2CCN(c3ccc(C#N)cn3)C2)n1C` [A.106], the IC50 is below 0.15 nM.
Same read-out and setting: under `Cc1c(S(=O)(=O)c2ccc3[nH]ncc3c2)cc(C(=O)N[C@@H]2CCN(c3cncnc3)C2)n1C` [A.73] stands 0.41 nM.
With `Cc1c(S(=O)(=O)c2ccc3[nH]ncc3c2)cc(C(=O)N[C@H]2CN(c3ncc(F)cn3)C[C@H]2O)n1C` [A.89], the IC50 was 14 nM.
With `Cc1c(S(=O)(=O)c2ccc3[nH]ncc3c2)cc(C(=O)N[C@@H]2CCN(c3ccncn3)C2)n1C` [A.93], the IC50 stood at 0.2 nM.
With `Cc1c(S(=O)(=O)c2ccc3[nH]ncc3c2)cc(C(=O)N[C@@H]2CCN(c3cc(F)cc(F)c3)C2)n1C` [A.96], the IC50 is 0.85 nM.
Turning to `Cc1c(S(=O)(=O)c2ccc3[nH]ncc3c2)cc(C(=O)N[C@H]2C[C@@H](N(C)c3ncc(F)cn3)C2)n1C` [A.98], the half-inhibitory concentration (IC50) stood at 0.39 nM.
Turning to `Cc1c(S(=O)(=O)c2cc(Cl)c3[nH]ncc3c2)cc(C(=O)N[C@@H]2CCN(c3ncc(F)cn3)C2)n1C` [A.41], the IC50 was below 0.15 nM.

Staying with this test, now noted: 37° C., 0.3 nM NSP14, 2.5 μM SAM, 2.5 μM GpppA RNA; read-out: Nsp14 Mtase Inh. IC50.
For `Cn1ncc(Cl)c1CNC(=O)c1cc(S(=O)(=O)c2ccc3[nH]ncc3c2)c2n1CCC2` [B.191], the IC50 worked out at 8.6 nM.
The same measure, in the same setting: under `CN=S(=O)(NC(=O)c1cc(S(=O)(=O)c2ccc3[nH]ncc3c2)c(C)n1C)c1ccccc1` (racemic) [B.135, 4-(1H-indazol-5-ylsulfonyl)-1,5-dimethyl-N—(N-methyl-S-phenyl-sulfonimidoyl)pyrrole-2-carboxamide] stands 19 nM; under `Cc1c(S(=O)(=O)c2ccc3[nH]ncc3c2)cc(C(=O)NCc2ccc(=O)[nH]c2)n1C` [B.104], 27 nM; under `Cc1c(S(=O)(=O)c2ccc3[nH]ncc3c2)cc(C(=O)N[C@H]2Cc3ccccc32)n1C` (single isomer, unassigned) [B.171], 2.7 nM.
Same read-out and setting: under `Cc1c(S(=O)(=O)c2ccc3[nH]ncc3c2)cc(C(=O)NCc2nccn2C)n1C` [B.131] stands 79 nM.
In the case of `Cc1c(S(=O)(=O)c2ccc3[nH]ncc3c2)cc(C(=O)NCc2c(F)ccc3nnn(C)c23)n1C` [B.43], the IC50 is below 0.15 nM.
Turning to `Cc1c(S(=O)(=O)c2cc(C#N)c3[nH]ncc3c2)cc(C(=O)NCc2cccc3cnn(C4CC4)c23)n1C` [B.106], the half-maximal inhibitory concentration (IC50) came out at 0.32 nM.
Same read-out and setting: under `Cc1c(S(=O)(=O)c2ccc3[nH]ncc3c2)cc(C(=O)NCc2c(F)ccc(=O)n2C)n1C` [B.179] stands below 0.15 nM.
On the same count and under the same terms, under `Cc1c(S(=O)(=O)c2ccc3[nH]ncc3c2)cc(C(=O)NC(=O)c2ccccc2)n1C` [B.169] stands 3.2 nM.
Take `Cc1c(S(=O)(=O)c2ccc3[nH]nc(F)c3c2)cc(C(=O)NCc2cccc3cnn(C)c23)n1C` [B.12]: the concentration for half-maximal inhibition (IC50) turned out to be 0.63 nM.
Take `Cc1c(S(=O)(=O)c2ccc3[nH]ncc3c2)cc(C(=O)NCc2[nH]c(=O)ccc2Cl)n1C` [B.190]: the IC50 worked out at 3.3 nM.
The same measure, in the same setting: under `Cc1c(S(=O)(=O)c2ccc3c(cnn3C)c2)cc(C(=O)NCc2c(F)ccnc2N2CCC(C(=O)NS(C)(=O)=O)C2)n1C` (centres unmarked) [B.182] stands below 0.15 nM; under `Cc1cc[nH]c(=O)c1CNC(=O)c1cc(S(=O)(=O)c2ccc3[nH]ncc3c2)c(C)n1C` [B.116], 4.6 nM.
On the same count and under the same terms, under `Cc1c(S(=O)(=O)c2ccc3[nH]ncc3c2)cc(C(=O)NCc2c[nH]c(=O)c3cccnc23)n1C` [B.159] stands 0.43 nM; under `Cc1cc(C)c(CNC(=O)c2cc(S(=O)(=O)c3ccc4[nH]ncc4c3)c(C)n2C)c(=O)[nH]1` [B.161], 2.7 nM.
Same read-out and setting: under `Cc1c(S(=O)(=O)c2ccc3[nH]ncc3c2)cc(C(=O)NCc2ccccc2)n1C` [B.67] stands 2.6 nM; under `Cc1c(S(=O)(=O)c2ccc3[nH]ncc3c2)cc(C(=O)NCc2ncnc3ncn(C)c23)n1C` [B.129], below 0.15 nM.

The IC50 is the concentration that inhibits the measured activity by half.

These data come from patent US20260226034A1 (The Rockefeller University, priority 2023, published 2026).
